According to patent US20040014624A1, “Recylable cleaning compositions” (priority 2003, published 2004):
Like-named read-outs stand apart in the source and are kept apart here.

Columns and labels:
[1] = 1% aqueous solutions, Table H; cited from earlier work
[2] = Membrane filtration permeability, Pennzoil 80W90 soiled system; assay type: physicochemical; settings: 1% oil, 140° F., HPLC
Description: (§1) A Membrex Benchmark GX (Fairfield, N.J.) lab-scale rotating membrane filtration unit was used for all permeability studies. Membrane cartridges were made of polyacrylonitrile with a 0.05 um pore size (Part #0567, Osmonics Corp., Minnetonka, Minn.).
(§2) One to two liters of the aqueous alkaline solution of the present invention in its diluted form, usually including 0.15% surfactant and 0.05% potassium carbonate, was placed in both the customer (or initial) and holding tanks (appropriately sized glass beakers). For experiments with soil, oil was added at a 1% level to both tanks. The tanks were heated with magnetic stirring on hotplates to either 140° F. or 100° F. The temperature was maintained throughout each experiment with RTD temperature probes interfaced to the hotplates. The rotation rate of the membrane filtration unit was 3000 RPM. Material from the holding tank was pumped into the membrane filtration unit at a flow of 600 ml/min. The outlet pressure was adjusted to achieve a 5 psi pressure drop across the membrane, resulting in permeate flows of approximately 100-300 ml/min depending on the soil and the operating temperature. The transfer line from the customer tank to the holding tank was adjusted to equal the permeate flow rate in order to maintain a constant level in both customer and holding tank. One cycle or turnover is defined to be the time at which the cumulative volume of permeate equals the initial volume of the customer tank. Permeate samples were collected at 1, 5 and/or 10 cycles.
(§3) A 0.05 um PAN membrane was used in the filtration.
(§4) Surfactant levels in permeate samples were determined by TOC (unsoiled studies only) and by HPLC/ELSD.
(§5) A sample of the initial cleaning solution was collected before addition of oil (if added) and before starting membrane operation. This initial cleaning soultion sample is defined to be the 100% permeable concentration. Serial dilutions of the 100% permeable sample were made to obtain calibration samples for the HPLC analysis. Point-to-point calibration curves were used for HPLC quantitation due to the non-linear nature of the ELSD response. For TOC analysis the initial cleaning solution sample was used for the single point calibration. For surfactants with multiple surfactant oligomers, individual oligomer permeability and overall surfactant permeability were determined. The overall surfactant permeability was calculated from the average of the oligomer results, except for Surfonic® L108/85-5 where the result for major C8 hydrophobe was used.
(§6) Example 3 was performed in the same way as Example 2 but in the presence of soil. The method described in Example 2 was followed in Example 3. The permeability performance of surfactants in soiled systems is of interest given the desire to separate the aqueous cleaning materials from soil. Two oils were evaluated in this study: Cosmoline® 1102 and Pennzoil® 80W90 oil.

[3] = Membrane filtration permeability, unsoiled system; assay type: physicochemical
Description: as §1, §2, §3, §4, §5

[4] = Surfactant Log P estimate by reversed phase HPLC
Description: Reversed phase HPLC was performed on all samples. Samples were filtered through Gelman 0.45 um PVDF filters and analyzed. Almost all separations were utilized the following conditions:
Column: Supelcosil LC-18 column, 15 cm×4.6 mm, 5 um particle size (Supelco, Bellefonte, Pa.).
Flow: 1 ml/min. Temperature: ambient Injection Volume: 50 ul Mobile Phase A: 70:30 methanol: water (v+v) with 10 mM ammonium acetate.
Mobile Phase B: 100% methanol.
The ELSD was operated at 40° C., with a nitrogen flow rate of 1.8 l/min. A Chromeleon Chromatography Data system (Dionex Corp. Sunnyvale, Calif.) was used to collect and process the HPLC data.
A reversed phase HPLC method was used to estimate surfactant Log P values. The HPLC capacity factor, k′, for each material was determined according to the equation: […]
The column void time was determined from the elution time of unretained salt. […] (FIG. 6).
The reversed phase HPLC separation used herein separates primarily based on the size of the hydrophobe. […] The peak maximum retention time was used to determine the Log P estimate for surfactants with either the narrow or the broad single peak profiles. […] (FIG. 7). […] In addition, the retention time of the individual hydrophobe peaks was used to calculate Log P values for these oligomers.

[5] = Membrane filtration permeability, Cosmoline 1102 soiled system; assay type: physicochemical; settings: 1% oil, 140° F., HPLC
Description: as §1, §2, §3, §4, §5, §6
The permeability of four surfactants was evaluated at 100° F. in the presence of 1% Cosmoline® 1102 oil. […] The results are listed in Table N and are plotted in FIG. 26 with a comparison to the 140° F. results.

[6] = known values used for calibration; cited from earlier work
[7] = unsoiled, Cycle 5, 140° F., HPLC (Table M)
[8] = unsoiled, Cycle 1, 0.05 um PAN membrane
[9] = unsoiled, Cycle 5, 0.05 um PAN membrane
[10] = unsoiled, Cycle 10, 0.05 um PAN membrane
[11] = single peak or individual hydrophobe peak, alkyl benzene standards

| Permeability, Pennzoil80W90-Cycle 5 [2] | Permeability, Cosmoline 1102-Cycle 5 [5] | % Permeability ([3]; not told) | LogP, HPLC estimate [4] | Compound | Cloud Point (° C.) [1] | also measured |
| --- | --- | --- | --- | --- | --- | --- |
|  |  |  |  | CCc1ccccc1 [ethyl benzene] |  | Log P of alkylbenzene retention time standards [6]: 3.13 |
|  |  |  |  | CCCCCCc1ccccc1 [hexyl benzene] |  | Log P of alkylbenzene retention time standards [6]: 5.24 |
|  |  |  |  | CCCCCCCCc1ccccc1 [octyl benzene] |  | Log P of alkylbenzene retention time standards [6]: 6.30 |
| 97% | 74% | 104% | 2.5 | C8 mono-glucoside [Glucopon ® 425/C8] |  |  |
| 77% | 22% | 87% | 3.2 | C10 mono-glucoside [Glucopon ® 425/C10] |  |  |
| 49% | <20% | 44% | 4.3 | C12 mono-glucoside [Glucopon ® 425/C12] |  |  |
| 39% | <20% | 35% | 5.2 | C14 mono-glucoside [Glucopon ® 425/C14] |  |  |
|  | 9% |  | 3.6 | cocamidopropyl betaine ammonium salt [Foamtaine ® CAB-A] | None |  |

| Compound | Permeability, Pennzoil80W90-Cycle 5 [2] | Permeability, Cosmoline 1102-Cycle 5 [5] | % Permeability ([3]; not told) | LogP, HPLC estimate [4] | Cloud Point (° C.) [1] | also measured |
| --- | --- | --- | --- | --- | --- | --- |
| CCCCCCCCCCCC[N+](C)(C)[O-] [Barlox ® 12, dodecyl dimethyl amine oxide] | 63% |  |  |  | None | % Permeability [3, 7]: 80%; chromatographic logP [4]: 4.5 |
| CCCCCCCC[N+](C)(C)[O-] [Mackamine ® C8, linear octyl dimethyl amine oxide] | 95% | 95% |  |  | None | Permeability, Cosmoline 1102-Cycle 1 [5]: 94%; Permeability, Cosmoline 1102-Cycle 10 [5]: 99%; % Permeability (HPLC) [3, 8]: 104%; % Permeability (TOC) [3, 8]: 101%; % Permeability (HPLC) [3, 9]: 105%; % Permeability (TOC) [3, 9]: 108%; % Permeability [3, 7]: 105%; % Permeability (HPLC) [3, 10]: 102%; % Permeability (TOC) [3, 10]: 117%; LogP, HPLC estimate [4, 11]: 2.5 |
| CCCCCCCCCC[N+](C)(C)[O-] [Mackamine ® C10, linear decyl dimethyl amine oxide] |  | 53% |  |  | None | LogP, HPLC estimate [4, 11]: 3.4 |
